Measurements published in ChEMBL document CHEMBL1124919, “Synthesis and biochemical studies of 7-substituted 4,6-androstadiene-3,17-diones as aromatase inhibitors” (J Med Chem, 1990).

Tested on: not listed separately
Test: Apparent Km value was determined
Assay type: ADME

| SMILES | Km |
| --- | --- |
| C[C@]12CCC(=O)C=C1CC[C@@H]1[C@@H]2CC[C@]2(C)C(=O)CC[C@@H]12 [ANDROSTENEDIONE] | 51 nM |

Target: T1, Aromatase (Homo sapiens, UniProt P11511)
T1 sequence (P11511 whole entry): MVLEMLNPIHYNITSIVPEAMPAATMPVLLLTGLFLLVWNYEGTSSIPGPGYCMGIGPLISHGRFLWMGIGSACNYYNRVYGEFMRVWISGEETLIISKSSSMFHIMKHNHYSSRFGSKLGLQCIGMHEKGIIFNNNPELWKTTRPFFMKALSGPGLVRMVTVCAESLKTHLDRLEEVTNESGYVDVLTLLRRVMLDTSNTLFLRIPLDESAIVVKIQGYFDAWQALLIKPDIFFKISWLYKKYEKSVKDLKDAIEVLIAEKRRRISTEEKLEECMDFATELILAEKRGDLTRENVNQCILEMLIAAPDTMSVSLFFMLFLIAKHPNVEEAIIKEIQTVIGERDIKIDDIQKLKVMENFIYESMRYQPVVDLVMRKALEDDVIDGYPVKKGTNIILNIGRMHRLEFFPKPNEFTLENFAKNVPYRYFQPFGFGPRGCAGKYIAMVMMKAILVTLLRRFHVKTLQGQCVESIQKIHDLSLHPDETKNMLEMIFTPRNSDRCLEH
Test: In vitro inhibition of human placental cytochrome P450 19A1

| SMILES | Ki |
| --- | --- |
| CC12CCC3C(C(CCc4ccc([N+](=O)[O-])cc4)=CC4=CC(=O)CCC43C)C1CCC2=O (configuration not stated) | 95 nM |
| CC12CCC3C(C(CCc4ccccc4)=CC4=CC(=O)CCC43C)C1CCC2=O (configuration not stated) | 174 nM |
| CC12CCC3C(C(CCc4ccc(N)cc4)=CC4=CC(=O)CCC43C)C1CCC2=O (configuration not stated) | 88 nM |
| CC12CCC3C(C(Cc4ccc([N+](=O)[O-])cc4)=CC4=CC(=O)CCC43C)C1CCC2=O (configuration not stated) | 94 nM |
| CC12CCC3C(C(c4ccccc4)=CC4=CC(=O)CCC43C)C1CCC2=O (configuration not stated) | 1420 nM |
| CC12CCC3C(C(Cc4ccc(N)cc4)=CC4=CC(=O)CCC43C)C1CCC2=O (configuration not stated) | 88 nM |
